Data as given in article PMC7340446, “Optimization of PTH/PTHrP Hybrid Peptides to Derive a Long‐Acting PTH Analog (LA‐PTH)” (JBMR Plus, 2020).
Where no end group is shown, it is not given here.

Assays:
[1] = Pharmacokinetics in normal rats, i.v., plasma peptide by ELISA; assay type: in vivo, rat; details: i.v. 10 nmol/kg, plasma with protease inhibitors, n = 4 (M‐PTH/PTHrP) or 3 (PTH(1–34))
Procedure: For pharmacokinetic studies, plasma samples were prepared in the presence of protease inhibitors (aprotinin, leupeptin, EDTA). Plasma levels of PTH(1–34) were assessed by ELISA assay (Human PTH(1–34) Specific ELISA Kit; Immutopics Inc, San Clemente, CA, USA), and plasma levels of M‐PTH/PTHrP were assessed by ELISA assay (PTH‐RP 1–34 Human Enzyme Immunoassay Kit; Peninsula Laboratories International, San Carlos CA, USA) using M‐PTH/PTHrP peptides as standard solutions.
Figure 3 Pharmacodynamic and pharmacokinetic profiles of M‐PTH/PTHrP and PTH(1–34) in rats. (A) Effects of M‐PTH/PTHrP and PTH(1–34) on blood ionized Ca in TPTX rats by i.v. injection. M‐PTH/PTHrP and PTH(1–34) were injected intravenously in TPTX rats at the indicated doses, and blood samples were collected from the tail vein measured for ionized Ca; data are means ± SE; n = 5 or 3 (PTH(1–34)). *p < 0.05, **p < 0.01, ***p < 0.005 M‐PTH/PTHrP or PTH(1–34) versus TPTX‐vehicle. […] M‐PTH/PTHrP and PTH(1–34) each at a dose of 10 nmol/kg were i.v. administered, and blood samples were collected from the jugular vein in the presence of proteinase inhibitors (Aprotinin, Leupeptin, and EDTA) and the plasma samples were assessed for peptide concentration using a hPTHrP(1–34)‐targeted EIA for M‐PTH/PTHrP and an hPTH(1–34)‐targeted ELISA for PTH(1–34). […]

[2] = Peptide solubility in aqueous buffers of neutral pH; assay type: physicochemical; details: lyophilized peptide reconstituted at 1.5 mg/cc in PBS pH 7.4 or 10‐mM acetic acid, 24 hours room temperature, centrifuged, supernatant by BCA protein assay; versus M‐PTH(1‐14)/PTHrP(15‐36)
TPTX rats = details: orally available agonist; cited from earlier work
Description: The low solubility observed for M‐PTH/PTHrP and related analogs containing the C‐terminal PTHrP(15–36) sequence when prepared at high concentrations in aqueous neutral buffer led us to explore amino acid substitutions that would improve solubility yet preserve activity on the PTHR1. […] The resulting analog, [Ala^1,3,12,18,22,Gln^10,Arg^11,Trp^14,Lys^26]‐PTH(1‐14)/PTHrP(15–36), ...

[3] = system: amino‐terminal ECD portion of the PTH receptor; details: cited from earlier work
Description: In this study, we systematically explored a series of hybrid molecules composed of PTH and PTHrP.

## CC[C@H](C)[C@H](NC(=O)[C@H](CCC(=O)O)NC(=O)[C@H](CO)NC(=O)[C@@H](NC(=O)[C@@H](N)CO)C(C)C)C(=O)N[C@@H](CCC(N)=O)C(=O)N[C@@H](CC(C)C)C(=O)N[C@@H](CCSC)C(=O)N[C@@H](Cc1cnc[nH]1)C(=O)N[C@@H](CC(N)=O)C(=O)N[C@@H](CC(C)C)C(=O)NCC(=O)N[C@@H](CCCCN)C(=O)N[C@@H](Cc1cnc[nH]1)C(=O)N[C@@H](CC(C)C)C(=O)N[C@@H](CC(N)=O)C(=O)N[C@@H](CO)C(=O)N[C@@H](CCSC)C(=O)N[C@@H](CCC(=O)O)C(=O)N[C@@H](CCCN=C(N)N)C(=O)N[C@H](C(=O)N[C@@H](CCC(=O)O)C(=O)N[C@@H](Cc1c[nH]c2ccccc12)C(=O)N[C@@H](CC(C)C)C(=O)N[C@@H](CCCN=C(N)N)C(=O)N[C@@H](CCCCN)C(=O)N[C@@H](CCCCN)C(=O)N[C@@H](CC(C)C)C(=O)N[C@@H](CCC(N)=O)C(=O)N[C@@H](CC(=O)O)C(=O)N[C@H](C(=O)N[C@@H](Cc1cnc[nH]1)C(=O)N[C@@H](CC(N)=O)C(=O)N[C@@H](Cc1ccccc1)C(=O)O)C(C)C)C(C)C [PTH(1‐34), reference compound]
[1]
  Time by which plasma concentration declined to the lowest detection level: ≤ 60 min

## AVAEIQLMHQRAKWIQDARRRAFLHKLIAEIHTAEI [LA‐PTH, [Ala^1,3,12,Gln^10,Arg^11,Trp^14]PTH(1‐14)/[Ala^18,22,Lys^26]PTHrP(15‐36)COOH]
[2]
  Peptide solubility in PBS relative to 10 mM acetic acid: improved peptide solubility

## Cc1cc(N2C(=O)NC(=O)C2(C)C)cc(C)c1CCS(=O)(=O)N1CCC2(CC1)N=C(c1ccc(OC(F)(F)F)cc1)NC2=O [PCO371]
TPTX rats
  Effect on sCa and sPi levels: restore sCa and lower sPi levels

## PTHrP(15–36): C‐terminal PTHrP fragment binding the receptor ECD (IQDLRRRFFLHHLIAEIHTAEI; Parathyroid hormone-related protein; UniProt P12272 51-72, looked up, fragment)
[3]
  Affinity for the ECD relative to the PTH(15–34) fragment: approximately twofold higher affinity
